Results as given in PubChem BioAssay (NCI).
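Each compound was tested at five concentrations against cells in 96-well plates for 48 hours. TGI: total growth inhibition.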 Where a SMILES comes first, the peptide text is derived from it. [ ]: non-standard residue; d: D form. The star is where a group is joined. mTyr = N[CH](Cc1cccc(O)c1)C(=O)O; Cbz = O=C(OCc1ccccc1)*; OBn = c1ccc(CO*)cc1

Key:
Experiment in all cases: NCI tumour cell line growth inhibition, 48 h
[1] = tested on: UO-31 renal
[2] = tested on: CAKI-1 renal
[3] = tested on: RPMI-8226 leukemia
[4] = tested on: SK-MEL-28 melanoma
[5] = tested on: EKVX NSCLC
[6] = tested on: RXF 393 renal
[7] = tested on: MOLT-4 leukemia
[8] = tested on: T-47D breast
[9] = tested on: HCT-15 colon
[10] = tested on: HL-60(TB) leukemia

CC(C)(CC(O)C#N)/[N+]([O-])=[N+](\[O-])C(C)(C)CC(O)C#N (stereo not drawn)
TGI [1]: 98.1 µM
TGI [2]: 30.4 µM
TGI [3]: 44.8 µM
TGI [4]: > 100 µM
TGI [5]: > 100 µM
TGI [6]: 35.4 µM
TGI [7]: 34.5 µM
TGI [8]: 82.3 µM
TGI [9]: 38.5 µM

Nc1ccc(C(=O)NN2C(=O)C(Cl)C2c2ccccc2)cc1 (stereo not drawn)
TGI [1]: > 100 µM
TGI [2]: > 100 µM
TGI [3]: > 100 µM
TGI [4]: > 100 µM
TGI [5]: > 100 µM
TGI [7]: > 100 µM
TGI [9]: > 100 µM

COc1ccc(-n2cnc3c(NC(CCSC)C(=O)O)ncnc32)cc1 (stereo not drawn)
TGI [1]: > 100 µM
TGI [2]: > 100 µM
TGI [3]: > 100 µM
TGI [4]: > 100 µM
TGI [5]: > 100 µM
TGI [7]: > 100 µM
TGI [8]: > 100 µM
TGI [9]: > 100 µM

COC(=O)C1=C(C)N2[C@H](C(=O)O)CO[C@@]2(C)[C@H](C(=O)OC)[C@H]1c1cccc([N+](=O)[O-])c1
TGI [1]: > 100 µM
TGI [2]: > 100 µM
TGI [3]: > 100 µM
TGI [4]: > 100 µM
TGI [5]: > 100 µM
TGI [6]: > 100 µM
TGI [7]: > 100 µM
TGI [8]: > 100 µM
TGI [9]: > 100 µM

O=C(CC(=O)Nc1ccccc1)N/N=C/c1cc(N=Nc2ccc(Br)cc2)ccc1O
TGI [1]: 7.93 µM
TGI [2]: > 10 µM
TGI [3]: > 10 µM
TGI [4]: > 10 µM
TGI [5]: > 10 µM
TGI [7]: > 10 µM
TGI [8]: > 10 µM
TGI [9]: > 10 µM
TGI [10]: 6 µM

Cc1ccc(N=Nc2c(O)c(C(=O)Nc3ccccc3)cc3ccccc23)c([N+](=O)[O-])c1
TGI [1]: > 100 µM
TGI [2]: > 100 µM
TGI [3]: > 100 µM
TGI [4]: > 100 µM
TGI [5]: > 100 µM
TGI [6]: > 100 µM
TGI [7]: > 100 µM
TGI [8]: > 100 µM
TGI [9]: > 100 µM

CNc1ccc(N)cc1C(=O)N1CCC[C@H]1CO
TGI [1]: > 100 µM
TGI [2]: > 100 µM
TGI [4]: > 100 µM
TGI [5]: > 100 µM
TGI [6]: > 100 µM
TGI [7]: > 100 µM
TGI [8]: > 100 µM
TGI [9]: > 100 µM
TGI [10]: > 100 µM

COC(=O)c1cnn2c1n[n+]([O-])c1ccccc12
TGI [1]: > 100 µM
TGI [2]: > 100 µM
TGI [3]: > 100 µM
TGI [4]: > 100 µM
TGI [5]: > 100 µM
TGI [6]: > 100 µM
TGI [7]: > 100 µM
TGI [8]: > 100 µM
TGI [10]: > 100 µM

FC(F)(F)c1ccc2nc(Sc3ccccn3)cnc2c1
TGI [1]: > 100 µM
TGI [2]: > 100 µM
TGI [4]: > 100 µM
TGI [5]: > 100 µM
TGI [6]: 55.5 µM
TGI [7]: > 100 µM
TGI [8]: > 100 µM
TGI [9]: > 100 µM
TGI [10]: 31.7 µM

Nc1ccc(CCN2CCN(CCCc3ccccc3)CC2)cc1
TGI [1]: > 100 µM
TGI [2]: > 100 µM
TGI [3]: > 100 µM
TGI [4]: > 100 µM
TGI [5]: > 100 µM
TGI [7]: > 100 µM
TGI [8]: 95.8 µM
TGI [9]: > 100 µM
TGI [10]: > 100 µM

COC(=O)C(Cc1cccc(O)c1)NC(=O)C(CC(=O)OCc1ccccc1)NC(=O)OCc1ccccc1 (stereo not drawn) (Cbz-Asp(OBn)-[mTyr]-OMe; configuration not given here)
TGI [1]: > 100 µM
TGI [3]: > 100 µM
TGI [4]: > 100 µM
TGI [5]: > 100 µM
TGI [6]: > 100 µM
TGI [7]: > 100 µM
TGI [8]: 59.5 µM
TGI [9]: > 100 µM
TGI [10]: > 100 µM

CCOc1ccc(-n2nnc3c(N)nc(N)nc32)cc1
TGI [2]: > 100 µM
TGI [3]: > 100 µM
TGI [4]: > 100 µM
TGI [5]: > 100 µM
TGI [7]: > 100 µM
TGI [8]: > 100 µM
TGI [9]: > 100 µM

CN(C)CCCN1c2ccccc2CCc2ccc([N+](=O)[O-])cc21
TGI [1]: 76 µM
TGI [2]: > 100 µM
TGI [3]: > 100 µM
TGI [4]: 77.9 µM
TGI [5]: > 100 µM
TGI [7]: > 100 µM
TGI [8]: 34.1 µM
TGI [9]: 57.7 µM
TGI [10]: 75.6 µM

COc1ccc(N=C2C(=Nc3ccc(OC)cc3)N(c3ccccc3)C(=S)N2N=C=C2Sc3ccccc3N2C)cc1
TGI [1]: > 100 µM
TGI [2]: > 100 µM
TGI [3]: > 100 µM
TGI [4]: > 100 µM
TGI [5]: > 100 µM
TGI [6]: > 100 µM
TGI [7]: > 100 µM
TGI [8]: > 100 µM
TGI [9]: > 100 µM

CCCc1ccc(NCc2cc(OC)c(OC)c(OC)c2)cc1
TGI [1]: 56.6 µM
TGI [3]: 37 µM
TGI [4]: 73.9 µM
TGI [5]: > 100 µM
TGI [6]: 61.7 µM
TGI [7]: 66.2 µM
TGI [9]: 32.1 µM

CCOC(=O)CSc1nnc(C(Sc2nc(-c3ccccc3)c(-c3ccccc3)[nH]2)C(C)C)n1-c1ccccc1 (stereo not drawn)
TGI [1]: > 31.6 µM
TGI [3]: > 86.9 µM
TGI [4]: 29 µM
TGI [5]: > 31.6 µM
TGI [6]: 67.1 µM
TGI [7]: 50 µM
TGI [8]: > 100 µM
TGI [9]: > 31.6 µM
TGI [10]: > 31.6 µM

CC(C)(C)OC(=O)NCCC1CN(C(=O)c2ccccc2)c2ccccc21 (stereo not drawn)
TGI [1]: 76.1 µM
TGI [2]: > 100 µM
TGI [3]: 54.4 µM
TGI [4]: 91.2 µM
TGI [5]: > 100 µM
TGI [6]: 99 µM
TGI [7]: 74.4 µM
TGI [8]: 95.5 µM
TGI [9]: > 100 µM

CC(NC(C)(C)C)C(=O)c1cccc(Cl)c1 (stereo not drawn)
TGI [2]: > 100 µM
TGI [3]: > 100 µM
TGI [4]: > 100 µM
TGI [5]: > 100 µM
TGI [6]: > 100 µM
TGI [7]: > 100 µM

CC1OC(OC2C(OC(=O)[C@@H]3CC(C)(C)C[C@H]4C5=CC[C@@H]6[C@@]7(C)C[C@H](O)[C@H](OC8OC(CO)C(O)C(O)C8O)[C@@](C)(CO)[C@@H]7[C@H](O)C[C@@]6(C)[C@]5(C)CC[C@@]34C)OCC(O)C2O)C(O)C(O)C1O (stereo partly drawn)
TGI [1]: > 7.5 µM
TGI [2]: > 7.5 µM
TGI [5]: > 7.5 µM
TGI [6]: > 7.5 µM
TGI [7]: > 7.5 µM
TGI [8]: > 7.5 µM
TGI [9]: > 7.5 µM
TGI [10]: > 7.5 µM

COc1ccc(CSc2ccccc2Cn2cccc2)cc1OC
TGI [1]: > 100 µM
TGI [2]: > 100 µM
TGI [3]: > 100 µM
TGI [4]: > 100 µM
TGI [5]: > 100 µM
TGI [8]: > 100 µM
TGI [9]: > 100 µM
TGI [10]: > 100 µM

COc1ccc(/C=C2\CN(C)C/C(=C\c3ccc(OC)c(OC)c3OC)C2=O)c(OC)c1OC
TGI [2]: 1.55 µM
TGI [3]: 0.211 µM
TGI [4]: 0.393 µM
TGI [5]: 4.37 µM
TGI [6]: 0.342 µM
TGI [7]: 0.0574 µM
TGI [8]: 6.22 µM
TGI [10]: 0.044 µM

O=C(/C=C/c1csc(-c2ccccc2)n1)NCc1ccc(C(=O)NCc2ccccc2)cc1
TGI [1]: > 100 µM
TGI [2]: > 100 µM
TGI [3]: > 100 µM
TGI [4]: > 100 µM
TGI [5]: > 100 µM
TGI [6]: > 100 µM
TGI [7]: > 100 µM
TGI [8]: > 100 µM
TGI [9]: > 100 µM

COc1cc(/C=C(/C#N)C(N)=O)ccc1O
TGI [1]: > 100 µM
TGI [2]: > 100 µM
TGI [3]: > 100 µM
TGI [4]: > 100 µM
TGI [5]: > 100 µM
TGI [7]: > 100 µM
TGI [9]: > 100 µM
TGI [10]: > 100 µM
